In patent publication US20200187502A1, “MICROBIOCIDAL OXADIAZOLE DERIVATIVES” (SYNGENTA PARTICIPATIONS AG, priority 2017, published 2020) one finds pest or weed control, inhibition of growth and melting point data, which are given here for eight molecules.

A word on the melting point: it is the temperature of the solid-liquid transition.

For data set [1], the system named is Puccinia recondita f. Sp. Tritici. The data set can be described thus: Fungicidal activity, wheat leaf disc preventative (brown rust). The conditions noted are these: foliar, 200 ppm in the applied formulation, wheat leaf segments cv. Kanzler, compared to untreated control, 7 to 9 days after application, read-out: disease control. Format: in vivo. The essentials: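 Preventative leaf-segment test: spray application of diluted formulated compound on wheat cv. Kanzler, spore inoculation after 1 day. Percent control relative to untreated segments rated 7 to 9 days post-application, with incubation at 19° C, 75% relative humidity, 12 h photoperiod.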

The test system is the same in data set [2]. The data set can be described thus: Fungicidal activity, wheat leaf disc curative (brown rust). Format: in vivo. To be noted: foliar, 200 ppm in the applied formulation, wheat leaf segments cv. Kanzler, curative (applied 1 day after inoculation), compared to untreated control, 6 to 8 days after application, read-out: disease control. The method in brief:
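Segments of wheat (cultivar Kanzler) sit on agar and are spore-inoculated first; after one day in darkness at 19° C and 75% RH the diluted formulated compound is sprayed on. A 12 h photoperiod follows at the same temperature and humidity before disease is scored against untreated controls.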

For the next data set, the system named is Phakopsora pachyrhizi. The data set can be described thus: Fungicidal activity, soybean leaf disc preventative (Asian soybean rust). Format: in vivo. The conditions noted are these: foliar, 200 ppm in the applied formulation, soybean leaf disks, compared to untreated control, 12 to 14 days after application, read-out: disease control. The method in brief: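 Read-out is percent disease control relative to untreated check discs, assessed once untreated discs show adequate disease, 12 to 14 days after application. Compounds, tested at 200 ppm in the applied formulation, are sprayed onto soybean leaf discs one day before inoculation with a spore suspension.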

Data set [3] deals with Glomerella lacenarium (Colletotrichum lacenarium). The data set can be described thus: Fungicidal activity, liquid culture, cucumber preventative (anthracnose). Format: cell-based. The conditions noted are these: 20 ppm in the applied formulation, liquid culture in PDB, inhibition of growth measured photometrically 3 to 4 days after application, compared to untreated control, read-out: disease control. The essentials: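 Test compound in DMSO is placed in a microtiter plate, then potato dextrose broth containing conidia from cryogenic storage is added. Incubation runs at 24° C., and growth inhibition is read photometrically after 3 to 4 days.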

Consider `CNC(=O)N(Cc1ccc(-c2noc(C(F)(F)F)n2)s1)OC` [Compound 1.2, 1-methoxy-3-methyl-1-[[5-[5-(trifluoromethyl)-1,2,4-oxadiazol-3-yl]-2-thienyl]methyl]urea], for which the melting point was in the range of 93.2 to 95.7 °C. Also, in data set [1], the pest or weed control at 200 ppm is no less than 80%. In addition, in data set [2], the pest or weed control at 200 ppm was no less than 80%. Also, the pest or weed control at 200 ppm in the data set with Phakopsora pachyrhizi was no less than 80%. For the same molecule, in data set [3], the inhibition of growth at 20 ppm is no less than 80%.
The molecule `CON(Cc1ccc(-c2noc(C(F)(F)F)n2)s1)C(=O)NC1CC1` [Compound 1.27, 3-cyclopropyl-1-methoxy-1-[[5-[5-(trifluoromethyl)-1,2,4-oxadiazol-3-yl]-2-thienyl]methyl]urea] came in with a melting point of 82.2 to 83.8 °C. For the same molecule, the pest or weed control at 200 ppm in data set [1] was no less than 80%. In addition, the pest or weed control at 200 ppm in data set [2] is no less than 80%. Besides, in the data set on Phakopsora pachyrhizi, the pest or weed control at 200 ppm was no less than 80%. The inhibition of growth at 20 ppm in data set [3] is no less than 80%.
For the molecule `O=C(NCc1ccc(-c2noc(C(F)(F)F)n2)s1)C1CC1(F)F` (stereo not shown) [Compound 3.2, 2,2-difluoro-N-[[5-[5-(trifluoromethyl)-1,2,4-oxadiazol-3-yl]-2-thienyl]methyl]cyclopropanecarboxamide], the pest or weed control at 200 ppm (in data set [1]; in data set [2]; in the data set with Phakopsora pachyrhizi) was no less than 80% in each case. The inhibition of growth at 20 ppm in data set [3] was no less than 80%.
Regarding `CCN(Cc1ccc(-c2noc(C(F)(F)F)n2)s1)C(=O)C1(C)COC1` [Compound 5.14, N-ethyl-3-methyl-N-[[5-(5-(trifluoromethyl)-1,2,4-oxadiazol-3-yl]-2-thienyl]methyl]oxetane-3-carboxamide], the pest or weed control at 200 ppm (in data set [1]; in data set [2]; in the data set with Phakopsora pachyrhizi) was no less than 80% throughout. In data set [3], the inhibition of growth at 20 ppm was no less than 80%.
For `O=C(NC1CC1)N(Cc1ccc(-c2noc(C(F)(F)F)n2)s1)OCC(F)F` [Compound 5.65, 3-cyclopropyl-1-(2,2-difluoroethoxy)-1-[[5-[5-(trifluoromethyl)-1,2,4-oxadiazol-3-yl]-2-thienyl]methyl]urea], the pest or weed control at 200 ppm (in data set [1]; in data set [2]; in the data set with Phakopsora pachyrhizi) was no less than 80% throughout. Further, in data set [3], the inhibition of growth at 20 ppm was no less than 80%.
For the molecule `O=C(CC(F)(F)F)NCc1ccc(-c2noc(C(F)(F)F)n2)s1` [Compound 2.12, 3,3,3-trifluoro-N-[[5-[5-(trifluoromethyl)-1,2,4-oxadiazol-3-yl]-2-thienyl]methyl]propanamide], the pest or weed control at 200 ppm (in data set [1]; in data set [2]; in the data set on Phakopsora pachyrhizi) was no less than 80% throughout. Also, the inhibition of growth at 20 ppm in data set [3] was no less than 80%.
As to `CC(C)C(=O)N(C)Cc1ccc(-c2noc(C(F)(F)F)n2)s1` [Compound 4.10, N,2-dimethyl-N-[[5-[5-(trifluoromethyl)-1,2,4-oxadiazol-3-yl]-2-thienyl]methyl]propanamide], the pest or weed control at 200 ppm (in data set [1]; in data set [2]; with Phakopsora pachyrhizi) was no less than 80% throughout. For the same molecule, the inhibition of growth at 20 ppm in data set [3] was no less than 80%.
On to `CCC(C)C(=O)N(C)Cc1ccc(-c2noc(C(F)(F)F)n2)s1` (stereo not shown) [Compound 4.37, N,2-dimethyl-N-[[5-[5-(trifluoromethyl)-1,2,4-oxadiazol-3-yl]-2-thienyl]methyl]butanamide], for which the pest or weed control at 200 ppm (in data set [1]; in data set [2]; in the data set on Phakopsora pachyrhizi) was no less than 80% throughout. Further, the inhibition of growth at 20 ppm in data set [3] was no less than 80%.
